Converted amounts (≈) assume the structure as drawn.
Experiments:
[1] = Kinetic solubility in PBS at pH 7.4; type: physicochemical; settings: read-out: Kinetic_solubility
Hepatitis B virus = test: Antiviral activity against HBV infected in HepDE19 cells; type: functional, organism-based
[2] = Cytotoxicity against human HepDE19 cells by CellTiter-Glo analysis; type: toxicity, cell-based
[3] = Microsomal stability in mouse liver microsomes assessed as intrinsic clearance; type: ADME, Microsome; settings: read-out: CLH
[4] = Microsomal stability in human liver microsomes assessed as intrinsic clearance; type: ADME, Microsome; settings: read-out: CLH

| Compound | solubility kinetic [1] | EC50 (Hepatitis B virus) | CC50 [2] | microsomal CLint [3] | microsomal CLint [4] |
| --- | --- | --- | --- | --- | --- |
| COc1ccc2c([C@@H](C)N(C)C(=O)Nc3ccc(F)c(Cl)c3)c[nH]c(=O)c2c1 | < 4 µM | 180 nM | > 25000 nM |  |  |
| C[C@H](c1c[nH]c(=O)c2c(F)cc(F)cc12)N(C)C(=O)Nc1ccc(F)c(Cl)c1 | 97 µM (≈ 39.8 µg/mL) | 19 nM | > 25000 nM | 25 µL/min/mg | 25 µL/min/mg |
| O=C(NCc1c[nH]c(=O)c2ccccc12)Nc1ccc(F)c(Cl)c1 |  | 6800 nM | > 25000 nM |  |  |
| C[C@H](c1c[nH]c(=O)c2cc(F)c(F)cc12)N(C)C(=O)Nc1ccc(F)cc1 | 190 µM (≈ 71.3 µg/mL) | 24 nM | > 25000 nM | 35 µL/min/mg | 17 µL/min/mg |
| C[C@H](c1c[nH]c(=O)c2cc(F)c(F)cc12)N(C)C(=O)[C@@H]1Cc2ccccc2N1 | 62 µM (≈ 23.8 µg/mL) | 22 nM | > 25000 nM | 375 µL/min/mg | 28 µL/min/mg |
| C[C@H](c1c[nH]c(=O)c2c(F)c(F)ccc12)N(C)C(=O)Nc1ccc(F)c(Cl)c1 | 92 µM (≈ 37.7 µg/mL) | 15 nM | > 25000 nM | 32 µL/min/mg | 28 µL/min/mg |
| CCCCN(C(=O)Nc1ccc(F)c(Cl)c1)C(C)c1c[nH]c(=O)c2ccccc12 (stereo not given) |  | 6 nM | > 25000 nM | 243 µL/min/mg | 143 µL/min/mg |
| CC(c1c[nH]c(=O)c2cc(Cl)ccc12)N(C)C(=O)Nc1ccc(F)c(Cl)c1 (racemic) |  | 200 nM | > 25000 nM |  |  |
| C[C@H](c1c[nH]c(=O)c2cc(F)c(F)cc12)N(C)C(=O)c1cc2ccc(F)cc2[nH]1 | 12 µM (≈ 4.79 µg/mL) | 22 nM | > 25000 nM | 33 µL/min/mg | 13 µL/min/mg |
| COc1ncc(CN(C)C(=O)Nc2ccc(F)c(Cl)c2)c2ccccc12 |  | 2000 nM |  |  |  |
| O=C(Nc1ccc(F)c(Cl)c1)N(Cc1c[nH]c(=O)c2ccccc12)C1CC1 |  | 810 nM | > 25000 nM |  |  |
| COCCN(Cc1c[nH]c(=O)c2ccccc12)C(=O)Nc1ccc(F)c(Cl)c1 |  | 470 nM | > 25000 nM |  |  |
| C[C@H](c1c[nH]c(=O)c2cc(F)c(F)cc12)N(C)C(=O)Nc1cccc(Cl)c1 | 72 µM (≈ 28.2 µg/mL) | 18 nM | > 25000 nM | 30 µL/min/mg | 32 µL/min/mg |
| C[C@H](c1c[nH]c(=O)c2cc(F)c(F)cc12)N(C)C(=O)Nc1ccc(F)c(Cl)c1 | 42 µM (≈ 17.2 µg/mL) | 7 nM | > 25000 nM | 23 µL/min/mg | 32 µL/min/mg |
| C[C@H](c1c[nH]c(=O)c2cc(F)c(F)cc12)N(C)C(=O)c1nc2ccccc2[nH]1 |  | 760 nM | > 25000 nM |  |  |
| C[C@H](c1c[nH]c(=O)c2ccc(F)cc12)N(C)C(=O)Nc1ccc(F)c(Cl)c1 | 82 µM (≈ 32.1 µg/mL) | 32 nM | > 25000 nM |  |  |
| COc1ccc2c(=O)[nH]cc([C@@H](C)N(C)C(=O)Nc3ccc(F)c(Cl)c3)c2c1 | 42 µM (≈ 17 µg/mL) | 1400 nM | > 25000 nM |  |  |
| CN(Cc1c[nH]c(=O)c2ccccc12)C(=O)Nc1ccc(F)c(Cl)c1 |  | 470 nM | > 25000 nM |  |  |
| C[C@H](c1c[nH]c(=O)c2c(Cl)cccc12)N(C)C(=O)Nc1ccc(F)c(Cl)c1 | < 4 µM | 85 nM | > 25000 nM |  |  |
| C[C@H](c1c[nH]c(=O)c2c(F)cccc12)N(C)C(=O)Nc1ccc(F)c(Cl)c1 | 146 µM (≈ 57.2 µg/mL) | 40 nM | > 25000 nM |  |  |
| C[C@H](c1c[nH]c(=O)c2cc(F)c(F)cc12)N(C)C(=O)c1cc2ccccc2[nH]1 | < 4 µM | 23 nM | > 25000 nM | 50 µL/min/mg | 26 µL/min/mg |
| CCN(Cc1c[nH]c(=O)c2ccccc12)C(=O)Nc1ccc(F)c(Cl)c1 |  | 160 nM | > 25000 nM |  |  |

| Compound | solubility kinetic [1] | EC50 (Hepatitis B virus) | CC50 [2] | microsomal CLint [3] | microsomal CLint [4] |
| --- | --- | --- | --- | --- | --- |
| CC(C)CN(C(=O)Nc1ccc(F)c(Cl)c1)C(C)c1c[nH]c(=O)c2ccccc12 (stereo not given) |  | 7 nM | > 25000 nM | > 300 µL/min/mg | 260 µL/min/mg |
| Cc1cc(NC(=O)N(C)[C@H](C)c2c[nH]c(=O)c3cc(F)c(F)cc23)ccc1F | 95 µM (≈ 37 µg/mL) | 7 nM | > 25000 nM | 60 µL/min/mg | 42 µL/min/mg |
| CCCN(Cc1c[nH]c(=O)c2ccccc12)C(=O)Nc1ccc(F)c(Cl)c1 |  | 60 nM | > 25000 nM |  |  |
| CC(c1c[nH]c(=O)c2ccccc12)N(C(=O)Nc1ccc(F)c(Cl)c1)C1CC1 (stereo not given) |  | 55 nM | > 25000 nM | 172 µL/min/mg | 152 µL/min/mg |
| C[C@H](c1c[nH]c(=O)c2cc(F)c(F)cc12)N(C)C(=O)[C@H]1Cc2ccccc2N1 |  | 300 nM | > 25000 nM |  |  |
| C[C@H](c1c[nH]c(=O)c2ccc(Cl)cc12)N(C)C(=O)Nc1ccc(F)c(Cl)c1 | 18 µM (≈ 7.35 µg/mL) | 120 nM | > 25000 nM |  |  |
| C[C@H](c1c[nH]c(=O)c2cc(F)c(F)cc12)N(C)C(=O)Nc1ccc(F)c(F)c1 | 179 µM (≈ 70.4 µg/mL) | 13 nM | > 25000 nM | 37 µL/min/mg | 25 µL/min/mg |
| CC(c1c[nH]c(=O)c2ccccc12)N(CCCO)C(=O)Nc1ccc(F)c(Cl)c1 (stereo not given) |  | 10 nM | > 25000 nM | 185 µL/min/mg | 71 µL/min/mg |
| CCCCN(Cc1c[nH]c(=O)c2ccccc12)C(=O)Nc1ccc(F)c(Cl)c1 |  | 80 nM | > 25000 nM |  |  |
| C[C@H](c1c[nH]c(=O)c2cc(F)c(F)cc12)N(C)C(=O)Nc1cccc(F)c1F |  | 290 nM | > 25000 nM |  |  |
| COc1ncc(CNC(=O)Nc2ccc(F)c(Cl)c2)c2ccccc12 |  | 9000 nM |  |  |  |
| COCCN(C(=O)Nc1ccc(F)c(Cl)c1)C(C)c1c[nH]c(=O)c2ccccc12 (stereo not given) |  | 91 nM | > 25000 nM | 238 µL/min/mg | 69 µL/min/mg |
| C[C@H](c1c[nH]c(=O)c2cc(F)c(F)cc12)N(C)C(=O)c1cc2cc(F)c(F)cc2[nH]1 | 5 µM (≈ 2.09 µg/mL) | 12 nM | > 25000 nM | 22 µL/min/mg | 14 µL/min/mg |
| C[C@H](c1c[nH]c(=O)c2cc(F)ccc12)N(C)C(=O)Nc1ccc(F)c(Cl)c1 | 98 µM (≈ 38.4 µg/mL) | 20 nM | > 25000 nM | 37 µL/min/mg | 28 µL/min/mg |
| COCCCN(C(=O)Nc1ccc(F)c(Cl)c1)C(C)c1c[nH]c(=O)c2ccccc12 (stereo not given) |  | 32 nM | > 25000 nM | 182 µL/min/mg | 54 µL/min/mg |
| COc1cccc2c(=O)[nH]cc([C@@H](C)N(C)C(=O)Nc3ccc(F)c(Cl)c3)c12 |  | 1500 nM | > 25000 nM |  |  |
| C[C@H](c1c[nH]c(=O)c2cc(F)c(F)cc12)N(C)C(=O)Nc1ccccc1 |  | 110 nM | > 25000 nM |  |  |
| C[C@H](c1c[nH]c(=O)c2cc(F)c(F)cc12)N(C)C(=O)Nc1cccc(F)c1 | > 200 µM | 37 nM | > 25000 nM | 35 µL/min/mg | 30 µL/min/mg |
| CCN(C(=O)Nc1ccc(F)c(Cl)c1)C(C)c1c[nH]c(=O)c2ccccc12 (stereo not given) |  | 25 nM | > 25000 nM | 32 µL/min/mg | 62 µL/min/mg |
| COCCCN(Cc1c[nH]c(=O)c2ccccc12)C(=O)Nc1ccc(F)c(Cl)c1 |  | 130 nM | > 25000 nM |  |  |
| CCCN(C(=O)Nc1ccc(F)c(Cl)c1)[C@H](C)c1c[nH]c(=O)c2ccccc12 |  | 9 nM | > 25000 nM | 190 µL/min/mg | 110 µL/min/mg |
